Data reported in patent US10456407B2, “Combination therapy for treating cancer” (Epizyme, Inc., priority 2015, dated 2019).

System: WSU-DLCL2 cells
Experiment: RT2 Glucocorticoid signaling PCR array, WSU-DLCL2 (WSU) cell line (Table 4c)
Assay type: cell-based

## CCN(c1cc(-c2ccc(CN3CCOCC3)cc2)cc(C(=O)NCc2c(C)cc(C)[nH]c2=O)c1C)C1CCOCC1 [Compound 44]
Gene MERTK
  Ct Values, MERTK: 31.323
  ΔCT (B2M), MERTK: 11.638
Gene MT2A
  Ct Values, MT2A: 23.499
  ΔCT (B2M), MT2A: 3.814
Gene MT2A, compared to DMSO
  ΔΔCT, MT2A: −1.453
Gene NFKBIA
  Ct Values, NFKBIA: 23.807
  ΔCT (B2M), NFKBIA: 4.122
Gene NFKBIA, compared to DMSO
  ΔΔCT, NFKBIA: 1.201
Gene NR3C1
  Ct Values, NR3C1: 23.121
  ΔCT (B2M), NR3C1: 3.436
Gene NR3C1, compared to DMSO
  ΔΔCT, NR3C1: −0.364
Gene PDCD7
  Ct Values, PDCD7: 24.740
  ΔCT (B2M), PDCD7: 5.055
Gene PDCD7, compared to DMSO
  ΔΔCT, PDCD7: 0.326
Gene PDP1
  Ct Values, PDP1: 25.226
  ΔCT (B2M), PDP1: 5.541
Gene PDP1, compared to DMSO
  ΔΔCT, PDP1: −0.380
Gene PER1
  Ct Values, PER1: 25.820
  ΔCT (B2M), PER1: 6.135
Gene PER1, compared to DMSO
  ΔΔCT, PER1: 0.476
Gene PER2
  Ct Values, PER2: 24.837
  ΔCT (B2M), PER2: 5.152
Gene PER2, compared to DMSO
  ΔΔCT, PER2: 0.151
Gene PIK3R1
  Ct Values, PIK3R1: 24.332
  ΔCT (B2M), PIK3R1: 4.647
Gene PIK3R1, compared to DMSO
  ΔΔCT, PIK3R1: 0.363
Gene PLEKHF1
  Ct Values, PLEKHF1: 28.660
  ΔCT (B2M), PLEKHF1: 8.975
Gene PLEKHF1, compared to DMSO
  ΔΔCT, PLEKHF1: 1.220
Gene POU2F1
  Ct Values, POU2F1: 24.671
  ΔCT (B2M), POU2F1: 4.986
Gene POU2F1, compared to DMSO
  ΔΔCT, POU2F1: 0.202
Gene POU2F2
  Ct Values, POU2F2: 22.678
  ΔCT (B2M), POU2F2: 2.993
Gene POU2F2, compared to DMSO
  ΔΔCT, POU2F2: −0.680
Gene RASA3
  Ct Values, RASA3: 23.208
  ΔCT (B2M), RASA3: 3.523
Gene RASA3, compared to DMSO
  ΔΔCT, RASA3: −0.979
Gene RGS2
  Ct Values, RGS2: 24.869
  ΔCT (B2M), RGS2: 5.184
Gene RGS2, compared to DMSO
  ΔΔCT, RGS2: 1.732
Gene RHO8
  Ct Values, RHO8: 27.234
  ΔCT (B2M), RHO8: 7.549
Gene RHO8, compared to DMSO
  ΔΔCT, RHO8: −2.725
Gene RPLP0
  Ct Values, RPLP0: 15.651
  ΔCT (B2M), RPLP0: −4.004
Gene SESN1
  Ct Values, SESN1: 25.215
  ΔCT (B2M), SESN1: 5.530
Gene SESN1, compared to DMSO
  ΔΔCT, SESN1: −3.709
Gene SGK1
  Ct Values, SGK1: 28.624
  ΔCT (B2M), SGK1: 8.939
Gene SGK1, compared to DMSO
  ΔΔCT, SGK1: 2.810
Gene SLC10A6
  Ct Values, SLC10A6: 35.684
  ΔCT (B2M), SLC10A6: 15.999
Gene SLC10A6, compared to DMSO
  ΔΔCT, SLC10A6: −1.168
Gene SLC19A2
  Ct Values, SLC19A2: 26.125
  ΔCT (B2M), SLC19A2: 6.440
Gene SLC19A2, compared to DMSO
  ΔΔCT, SLC19A2: −0.748
Gene SLC22A5
  Ct Values, SLC22A5: 26.640
  ΔCT (B2M), SLC22A5: 6.995
Gene SLC22A5, compared to DMSO
  ΔΔCT, SLC22A5: −2.496
Gene SNTA1
  Ct Values, SNTA1: 24.181
  ΔCT (B2M), SNTA1: 4.496
Gene SNTA1, compared to DMSO
  ΔΔCT, SNTA1: −0.492
Gene SPHK1
  Ct Values, SPHK1: 29.333
  ΔCT (B2M), SPHK1: 9.648
Gene SPHK1, compared to DMSO
  ΔΔCT, SPHK1: −0.545
Gene SPSB1
  Ct Values, SPSB1: 26.952
  ΔCT (B2M), SPSB1: 7.267
Gene SPSB1, compared to DMSO
  ΔΔCT, SPSB1: −2.896
Gene STAT5A
  Ct Values, STAT5A: 25.495
  ΔCT (B2M), STAT5A: 5.810
Gene STAT5A, compared to DMSO
  ΔΔCT, STAT5A: −0.307
Gene STAT5B
  Ct Values, STAT5B: 23.453
  ΔCT (B2M), STAT5B: 3.768
Gene STAT5B, compared to DMSO
  ΔΔCT, STAT5B: −0.196
Gene TBL1XR1
  Ct Values, TBL1XR1: 22.111
  ΔCT (B2M), TBL1XR1: 2.426
Gene TBL1XR1, compared to DMSO
  ΔΔCT, TBL1XR1: 0.274
Gene TNF
  Ct Values, TNF: 25.079
  ΔCT (B2M), TNF: 5.394
Gene TNF, compared to DMSO
  ΔΔCT, TNF: 1.150
Gene TNFAIP3
  Ct Values, TNFAIP3: 26.903
  ΔCT (B2M), TNFAIP3: 7.218
Gene TNFAIP3, compared to DMSO
  ΔΔCT, TNFAIP3: 1.722
Gene TSC22D3
  Ct Values, TSC22D3: 25.390
  ΔCT (B2M), TSC22D3: 5.705
Gene TSC22D3, compared to DMSO
  ΔΔCT, TSC22D3: −0.359
Gene USP2
  Ct Values, USP2: 21.903
  ΔCT (B2M), USP2: 2.218
Gene USP2, compared to DMSO
  ΔΔCT, USP2: −0.978
Gene USPS4
  Ct Values, USPS4: 26.807
  ΔCT (B2M), USPS4: 7.122
Gene USPS4, compared to DMSO
  ΔΔCT, USPS4: 0.023
Gene VDR
  Ct Values, VDR: 27.293
  ΔCT (B2M), VDR: 7.608
Gene VDR, compared to DMSO
  ΔΔCT, VDR: −3.044
Gene VLDLR
  Ct Values, VLDLR: 32.346
  ΔCT (B2M), VLDLR: 12.661
Gene VLDLR, compared to DMSO
  ΔΔCT, VLDLR: 3.859
Gene ZFP36
  Ct Values, ZFP36: 25.541
  ΔCT (B2M), ZFP36: 5.856
Gene ZFP36, compared to DMSO
  ΔΔCT, ZFP36: 0.939
Gene ZHX3
  Ct Values, ZHX3: 24.831
  ΔCT (B2M), ZHX3: 5.146
Gene ZHX3, compared to DMSO
  ΔΔCT, ZHX3: −1.178
Gene ZNF281
  Ct Values, ZNF281: 23.913
  ΔCT (B2M), ZNF281: 4.228
Gene ZNF281, compared to DMSO
  ΔΔCT, ZNF281: −0.329
